Tests used:
PPARα = target: T1, PPARα (Homo sapiens, UniProt Q07869); assay: PPARα radioligand binding assay (SPA, GST-PPARα-LBD)
T1 construct: PPARα (aa 167 to 469); made in house; host or cells: E. coli BL21 (pLysS)
T1 sequence (Q07869 167-468 limits assumed): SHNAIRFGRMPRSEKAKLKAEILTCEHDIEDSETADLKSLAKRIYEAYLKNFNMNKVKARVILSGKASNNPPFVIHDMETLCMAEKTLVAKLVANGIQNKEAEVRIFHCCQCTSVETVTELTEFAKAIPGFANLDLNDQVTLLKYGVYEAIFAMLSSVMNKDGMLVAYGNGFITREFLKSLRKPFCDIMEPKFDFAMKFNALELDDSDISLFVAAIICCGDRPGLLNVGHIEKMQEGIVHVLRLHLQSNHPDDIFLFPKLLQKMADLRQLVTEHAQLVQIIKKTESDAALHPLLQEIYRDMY
Excerpt: (§1) Background information on the performed assays can be found in: Nichols J S et al. “Development of a scintillation proximity assay for peroxisome proliferator-activated receptor gamma ligand binding domain”, (1998) Anal. Biochem. 257: 112-119.
(§2) Full-length cDNA clones for humans PPARδ and PPARα and mouse PPARγ were obtained by RT-PCR from human adipose and mouse liver cRNA, respectively, cloned into plasmid vectors and verified by DNA sequencing. Bacterial and mammalian expression vectors were constructed to produce glutathione-s-transferase (GST) and Gal4 DNA binding domain proteins fused to the ligand binding domains (LBD) of PPARδ (aa 139 to 442), PPARγ (aa 174 to 476) and PPARα (aa 167 to 469). To accomplish this, the portions of the cloned sequences encoding the LBDs were amplified from the full-length clones by PCR and then subcloned into the plasmid vectors. Final clones were verified by DNA sequence analysis.
(§3) Induction, expression, and purification of GST-LBD fusion proteins were performed in E. coli strain BL21 (pLysS) cells by standard methods (Ref: Current Protocols in Molecular Biology, Wiley Press, edited by Ausubel et al.).
(§4) PPARα receptor binding was assayed in TKE50 (50 mM Tris-HCl, pH 8, 50 mM KCl, 2 mM EDTA, 0.1 mg/ml fatty acid-free BSA and 10 mM DTT). For each 96 well reaction an 140 ng equivalent of GST-PPARα-LBD fusion protein was bound to 10 μg SPA beads (PharmaciaAmersham) in a final volume of 50 μl by shaking. The resulting slurry was incubated for 1 h at RT and centrifuged for 2 min at 1300 g. The supernatant containing unbound protein was removed and the semidry pellet containing the receptor-coated beads was resolved in 50 μl of TKE. […] All binding assays were performed in 96 well plates and the amount of bound ligand measured on a Packard TopCount using OptiPlates (Packard). Nonspecific binding was determined in the presence of 10^−4 M unlabelled compound. […]

PPARγ = target: T2, PPARγ (Mus musculus, UniProt P37238); assay: PPARγ radioligand binding assay (SPA, GST-PPARγ-LBD)
T2 construct: PPARγ (aa 174 to 476); made in house; host or cells: E. coli BL21 (pLysS)
T2 sequence (P37238 204-505): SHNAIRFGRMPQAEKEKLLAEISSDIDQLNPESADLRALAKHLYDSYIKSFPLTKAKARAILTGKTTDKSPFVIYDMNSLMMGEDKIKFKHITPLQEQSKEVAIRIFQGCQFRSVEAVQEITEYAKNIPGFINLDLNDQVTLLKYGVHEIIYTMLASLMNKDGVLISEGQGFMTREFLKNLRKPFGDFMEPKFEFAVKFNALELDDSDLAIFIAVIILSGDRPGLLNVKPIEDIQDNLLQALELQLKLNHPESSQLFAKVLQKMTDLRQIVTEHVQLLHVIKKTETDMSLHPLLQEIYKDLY
Excerpt: as §1, §2, §3
as §4, with “PPARγ” for “PPARα”, “GST-PPARγ-LBD” for “GST-PPARα-LBD”, “ul” for “μl”

PPARδ = target: T3, PPARδ (Homo sapiens, UniProt Q03181); assay: PPARδ radioligand binding assay (SPA, GST-PPARδ-LBD)
T3 construct: PPARδ (aa 139 to 442); made in house; host or cells: E. coli BL21 (pLysS)
T3 sequence (Q03181 139-441 limits assumed): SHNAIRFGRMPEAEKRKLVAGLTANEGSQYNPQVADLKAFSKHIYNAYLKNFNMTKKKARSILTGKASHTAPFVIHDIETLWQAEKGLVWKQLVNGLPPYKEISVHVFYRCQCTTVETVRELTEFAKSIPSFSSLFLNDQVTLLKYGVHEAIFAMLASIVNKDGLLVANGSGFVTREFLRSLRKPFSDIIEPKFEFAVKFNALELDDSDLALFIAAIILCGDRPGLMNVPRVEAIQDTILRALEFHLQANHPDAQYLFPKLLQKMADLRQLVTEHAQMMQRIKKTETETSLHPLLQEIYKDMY
Excerpt: as §1, §2, §3
PPARδ receptor binding was assayed in HNM10 (50 mM Hepes, pH 7.4, 10 mM NaCl, 5 mM MgCl2, 0.15 mg/ml fatty acid-free BSA and 15 mM DTT). For each 96 well reaction a 500 ng equivalent of GST-PPARδ-LBD fusion protein and radioligand, e.g. 20000 dpm {2-methyl-4-[4-methyl-2-(4-trifluoromethyl-phenyl)-thiazol-5-yl-ditritiomethylsulfanyl]-phenoxy}-acetic acid, was bound to 10 μg SPA beads (PharmaciaAmersham) in a final volume of 50 μl by shaking. The resulting slurry was incubated for 1 h at RT and centrifuged for 2 min at 1300 g. […] Radioligand was added and the reaction incubated at RT for 1 h and scintillation proximity counting performed in the presence of test compounds was determined. All binding assays were performed in 96 well plates and the amount of bound ligand was measured on a Packard TopCount using OptiPlates (Packard). […]

IC50 (PPARα)	IC50 (PPARγ)	IC50 (PPARδ)	SMILES
420 nM	> 10000 nM	580 nM	Cc1cc(OC(C)C(=O)Nc2cccc(-c3ccc(C(F)(F)F)cc3)c2)ccc1OC(C)(C)C(=O)O (racemic) [Example 09, [rac]-2-Methyl-2-{2-methyl-4-[1-(4′-trifluoromethyl-biphenyl-3-ylcarbamoyl)-ethoxy)-phenoxy}-propionic acid]
8 nM	> 10000 nM	> 10000 nM	CC(C)(Oc1ccc(CCCC(=O)Nc2cnc(-c3ccc(C(F)(F)F)cc3)nc2C2CC2)cc1)C(=O)O [Example 16, 2-(4-{3-[4-Cyclopropyl-2-(4-trifluoromethyl-phenyl)-pyrimidin-5-ylcarbamoyl]-propyl}-phenoxy)-2-methyl-propionic acid]
24 nM	1080 nM	940 nM	Cc1cc(OCCNC(=O)c2cnc(-c3ccc(C(F)(F)F)cc3)nc2C2CC2)ccc1OC(C)(C)C(=O)O [Example 20, 2-[4-(2-{[4-Cyclopropyl-2-(4-trifluoromethyl-phenyl)-pyrimidine-5-carbonyl]-amino}-ethoxy)-2-methyl-phenoxy]-2-methyl-propionic acid]
